# Experimental data from ChEMBL document CHEMBL1201862, “PubChem BioAssay data set” (2004).
# The source made the active and inactive calls.
# Assays:
# [1] = target: T1, Heat shock factor protein 1 (Mus musculus, UniProt P38532); test: decrease of HSF1-responsive luciferase luminescence – cell-based, NIH3T3, dose retest, confirmation (AID 2382); type: functional;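 note: NIH3T3 fibroblasts with HSF1-driven luciferase reporter stressed by proteasome inhibitor MG132; luminescence from HSF1-driven luciferase expression after 8 hours of MG132 stress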
# T1 sequence (P38532 whole entry): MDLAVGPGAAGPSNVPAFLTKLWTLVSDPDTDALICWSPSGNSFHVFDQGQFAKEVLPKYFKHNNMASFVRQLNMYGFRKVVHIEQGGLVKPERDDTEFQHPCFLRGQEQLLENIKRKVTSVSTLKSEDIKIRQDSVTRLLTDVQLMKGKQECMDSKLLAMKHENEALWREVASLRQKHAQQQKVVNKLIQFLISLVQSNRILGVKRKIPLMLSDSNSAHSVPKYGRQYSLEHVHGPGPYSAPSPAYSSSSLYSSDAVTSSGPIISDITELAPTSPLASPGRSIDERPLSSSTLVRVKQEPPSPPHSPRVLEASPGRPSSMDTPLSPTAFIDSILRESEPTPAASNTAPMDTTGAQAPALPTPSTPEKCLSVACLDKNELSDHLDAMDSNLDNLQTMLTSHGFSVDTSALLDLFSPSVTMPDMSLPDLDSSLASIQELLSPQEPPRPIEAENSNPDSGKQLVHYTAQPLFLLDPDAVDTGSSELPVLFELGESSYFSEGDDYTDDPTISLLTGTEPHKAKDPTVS
# [2] = target: T1, Heat shock factor protein 1; test: enhancement of HSF1-driven luciferase signal – cell-based, NIH3T3, luminescence, dose retest, confirmation (AID 435004); type: functional;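 note: stress induced by proteasome inhibitor MG132 added 30 min after compound; luciferase reporter driven by HSF1 response element in NIH3T3 cells; actives raise luminescence as potentiators of the MG132 stress response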
# [3] = target: Cytochrome P450 2C9 (Homo sapiens, UniProt P11712)
# Cytochrome P450 2C9, sequence (P11712 whole entry): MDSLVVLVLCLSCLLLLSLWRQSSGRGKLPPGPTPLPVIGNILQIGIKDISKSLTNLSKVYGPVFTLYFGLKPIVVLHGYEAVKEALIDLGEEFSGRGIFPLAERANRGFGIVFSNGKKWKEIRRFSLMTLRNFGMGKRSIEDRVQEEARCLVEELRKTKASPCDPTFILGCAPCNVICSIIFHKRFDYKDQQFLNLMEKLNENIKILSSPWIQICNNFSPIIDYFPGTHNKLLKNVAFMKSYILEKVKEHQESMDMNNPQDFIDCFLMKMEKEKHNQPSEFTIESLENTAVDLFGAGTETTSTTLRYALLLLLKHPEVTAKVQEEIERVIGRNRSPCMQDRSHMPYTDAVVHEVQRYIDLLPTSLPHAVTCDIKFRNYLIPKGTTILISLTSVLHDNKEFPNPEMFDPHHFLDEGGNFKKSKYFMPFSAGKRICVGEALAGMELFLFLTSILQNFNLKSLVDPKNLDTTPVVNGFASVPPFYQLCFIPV
# [4] = target: T2, Replicative DNA helicase DnaB (Mycobacterium tuberculosis, UniProt P9WMR3); test: DnaB intein splicing inhibitors, dose response, biochemical, cell-free fluorescence (AID 449749); type: functional
# T2 sequence (P9WMR3 whole entry): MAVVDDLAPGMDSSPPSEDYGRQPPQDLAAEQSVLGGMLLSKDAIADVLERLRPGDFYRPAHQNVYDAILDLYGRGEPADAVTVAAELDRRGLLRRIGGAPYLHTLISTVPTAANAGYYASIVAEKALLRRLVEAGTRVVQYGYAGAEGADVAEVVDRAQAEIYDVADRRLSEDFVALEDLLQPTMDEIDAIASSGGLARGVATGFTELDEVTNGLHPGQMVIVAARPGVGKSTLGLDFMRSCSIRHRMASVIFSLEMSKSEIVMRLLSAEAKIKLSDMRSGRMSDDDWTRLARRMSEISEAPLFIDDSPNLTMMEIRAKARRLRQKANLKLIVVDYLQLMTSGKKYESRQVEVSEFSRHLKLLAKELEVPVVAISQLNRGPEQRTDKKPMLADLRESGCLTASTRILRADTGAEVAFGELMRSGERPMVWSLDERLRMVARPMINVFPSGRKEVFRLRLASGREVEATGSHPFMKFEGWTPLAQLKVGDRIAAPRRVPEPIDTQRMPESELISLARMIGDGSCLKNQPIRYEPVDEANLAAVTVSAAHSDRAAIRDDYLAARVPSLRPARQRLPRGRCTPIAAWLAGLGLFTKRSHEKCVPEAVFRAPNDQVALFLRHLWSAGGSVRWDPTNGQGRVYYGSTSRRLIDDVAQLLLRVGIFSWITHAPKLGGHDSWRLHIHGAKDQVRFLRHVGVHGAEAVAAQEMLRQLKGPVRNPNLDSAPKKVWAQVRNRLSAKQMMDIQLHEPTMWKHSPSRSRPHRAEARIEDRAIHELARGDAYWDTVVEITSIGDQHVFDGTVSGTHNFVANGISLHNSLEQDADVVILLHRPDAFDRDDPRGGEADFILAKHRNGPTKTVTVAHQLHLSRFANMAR
# [5] = target: T3, Protein RecA (Mycobacterium tuberculosis, UniProt P9WHJ3); test: Fluorescence Cell-Free Homogeneous Dose Retest to Identify Inhibitors of RecA-Intein Splicing Activity. [Related pubchem assays (depositor defined):AID2097, AID2223, AID489010, AID492950]; type: functional
# T3 sequence (P9WHJ3 whole entry): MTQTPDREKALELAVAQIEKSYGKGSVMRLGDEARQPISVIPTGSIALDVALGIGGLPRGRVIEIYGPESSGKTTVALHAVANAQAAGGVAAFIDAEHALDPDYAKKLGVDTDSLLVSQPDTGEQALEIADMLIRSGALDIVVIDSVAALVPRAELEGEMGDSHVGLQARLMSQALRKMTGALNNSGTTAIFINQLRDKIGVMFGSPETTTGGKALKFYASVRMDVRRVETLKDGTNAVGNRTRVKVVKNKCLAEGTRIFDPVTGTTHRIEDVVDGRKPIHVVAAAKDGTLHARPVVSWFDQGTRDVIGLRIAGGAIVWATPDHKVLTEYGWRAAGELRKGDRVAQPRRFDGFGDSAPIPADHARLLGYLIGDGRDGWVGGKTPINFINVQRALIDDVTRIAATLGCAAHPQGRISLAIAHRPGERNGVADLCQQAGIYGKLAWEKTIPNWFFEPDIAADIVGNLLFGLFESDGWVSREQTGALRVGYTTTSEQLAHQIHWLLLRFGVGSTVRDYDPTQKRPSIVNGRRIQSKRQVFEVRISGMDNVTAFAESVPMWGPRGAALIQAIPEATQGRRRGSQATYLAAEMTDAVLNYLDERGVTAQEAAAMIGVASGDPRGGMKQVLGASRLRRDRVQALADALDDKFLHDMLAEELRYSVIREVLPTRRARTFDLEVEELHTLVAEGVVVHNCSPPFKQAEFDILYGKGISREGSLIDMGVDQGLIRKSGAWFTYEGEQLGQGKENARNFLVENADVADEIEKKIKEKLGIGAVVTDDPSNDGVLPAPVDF
# [6] = target: Cytochrome P450 2C19 (Homo sapiens, UniProt P33261); test: Cytochrome panel assay with activity outcomes. Panel member name: p450-cyp2c19 Compounds with AC50 equal or less than 10 uM are considered active; type: functional; conditions: read-out: AC50
# Cytochrome P450 2C19, sequence (P33261 whole entry): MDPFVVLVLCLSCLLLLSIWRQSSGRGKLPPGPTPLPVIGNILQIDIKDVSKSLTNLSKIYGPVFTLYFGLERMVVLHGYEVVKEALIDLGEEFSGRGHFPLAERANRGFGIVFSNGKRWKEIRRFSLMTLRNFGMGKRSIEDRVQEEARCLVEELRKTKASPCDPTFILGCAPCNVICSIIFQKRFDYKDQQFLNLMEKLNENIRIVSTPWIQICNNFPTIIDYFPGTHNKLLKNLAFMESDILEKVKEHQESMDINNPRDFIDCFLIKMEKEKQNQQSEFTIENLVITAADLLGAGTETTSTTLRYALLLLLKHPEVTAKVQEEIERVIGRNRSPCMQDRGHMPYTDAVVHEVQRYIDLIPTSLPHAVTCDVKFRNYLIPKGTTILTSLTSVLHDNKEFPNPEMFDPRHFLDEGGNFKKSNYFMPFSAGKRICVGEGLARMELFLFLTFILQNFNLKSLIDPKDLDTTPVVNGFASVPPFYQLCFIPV
# [7] = luciferase reporter signal suppression in cells – H4 neuroglioma cells, luminescence, dose response (AID 1990); type: functional, cell-based
# [8] = Luminescence Cell-Based Dose Response HTS to Identify Inhibitors of 5'UTR Stem-Loop Driven Prion Protein mRNA Translation in H4 Neuroglioblastoma Cells. [Related pubchem assays: 1827 (Project Summary), 1813 (Primary HTS)]; type: functional
# [9] = alpha-synuclein stem-loop luciferase translation blockers – H4 neuroglioma cells, luminescence, confirmation (AID 1988); type: functional, cell-based
# [10] = Trypanosoma cruzi growth suppression in host cells – NIH3T3 host cells, beta-gal luminescence, confirmation (AID 2044); type: functional, cell-based;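 note: intracellular parasites grown in NIH/3T3 mouse fibroblasts as host cells; luminescent beta-galactosidase reporter signal from transgenic T. cruzi replicating inside host cells; inhibitors lower the luminescence signal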
# [11] = NIH3T3 cell viability loss – ATP luminescence, mouse fibroblasts, counter-screen, dose response (AID 2010); type: functional, cell-based;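 note: cells exposed to compound for about 90 hours before reading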
smiles,measurement,setting,value
O=C(Nc1ccc2[nH]ncc2c1)c1ccccc1Cl,EC50,[1],> 195 µM (not active)
Cc1ccc2c(c1)N(Cc1ccc([N+](=O)[O-])cc1)C=NS2(=O)=O,EC50,[1],> 195 µM (not active)
CN1CCN(C(=O)c2cc([N+](=O)[O-])cc([N+](=O)[O-])c2)CC1,EC50,[1],> 195 µM (not active)
CCc1ccc(NC(=O)COC(=O)/C=C/c2c(C)nn(C3CCS(=O)(=O)C3)c2Cl)cc1 (stereo unspecified),EC50,[2],> 260 µM (inactive)
O=C(Cc1ccccc1)NC(=S)Nc1cc(C(F)(F)F)ccc1Cl,AC50,[3],3.55 µM (inconclusive)
CCN1C(=O)[C@H]2[C@@H](c3ccc(C)cc3)N3C(=O)N(c4ccc(C)cc4)C(=O)[C@@]3(C)[C@H]2C1=O,EC50,[1],> 195 µM (not active)
COC(=O)c1c(N2C(=O)[C@H]3[C@@H](C2=O)[C@]2(C(=O)Nc4c(C)cccc42)N2CCC[C@@H]32)sc(C)c1C,EC50,[1],> 195 µM (not active)
CN(C)c1ccc(C(=O)n2nnc3ccccc32)cc1,AC50,[4],7.46 µM (active)
same,EC50,[5],9.71 µM (active)
O=C1CC(N2C(=O)/C(=C/C=C/c3ccccc3)SC2=S)C(=O)N1c1ccccc1 (stereo unspecified),EC50,[2],> 260 µM (inactive)
COc1cc(C(=O)N(C)C2CCCN(Cc3ccccc3F)C2)cc(OC)c1OC (stereo unspecified),EC50,[1],> 195 µM (not active)
CC(C)C(C(=O)NCC1CCCO1)N(Cc1ccco1)C(=O)CNS(=O)(=O)c1ccc(F)cc1 (stereo unspecified),AC50,[6],11.2 µM (inconclusive)
same,AC50,[3],39.8 µM (inconclusive)
COc1ccc2[nH]c(CN3CCC(CO)(CCOc4ccccc4)CC3)c(C)c2c1,AC50,[4],> 380 µM (inactive)
same,EC50,[5],> 380 µM (inactive)
COc1ccc(N(CC(=O)Nc2cccc(C)c2)S(=O)(=O)c2c(C)noc2C)cc1,EC50,[1],> 195 µM (not active)
CCOc1ccc(NC(=S)N(CCc2ccncc2)C(C)C)cc1,EC50,[1],> 195 µM (not active)
CCC12C(=O)C(CC)(C(c3ccccc3)=C1c1ccccc1)[C@@H]1C(=O)N(c3ccc(C)cc3)C(=O)C12 (stereo partly specified),EC50,[7],14.8 µM (active)
same,EC50,[8],> 120 µM (not active)
same,EC50,[9],> 120 µM (not active)
same,EC50,[10],2.87 µM (active)
same,EC50,[11],> 30 µM (not active)
O=S(=O)(NCc1ccccn1)c1ccc2ccccc2c1,EC50,[2],> 260 µM (inactive)
COc1cccc(NC=C2C(=O)CC(C)(C)CC2=O)c1,EC50,[2],8.09 µM (active)
COc1c([N+](=O)[O-])c(=O)oc2ccccc12,EC50,[1],> 195 µM (not active)
CCN(C1CCS(=O)(=O)C1)S(=O)(=O)c1cccs1 (stereo unspecified),EC50,[1],> 195 µM (not active)
Clc1ccccc1-c1cncnc1NCc1cccs1,AC50,[3],0.794 µM (inconclusive)
Cc1n[nH]c(O)c1C(c1ccc(F)cc1)c1c(C)n[nH]c1O,AC50,[4],0.628 µM (active)
same,EC50,[5],0.291 µM (active)
Cc1ccccc1/[N+]([O-])=C/c1cccs1,EC50,[2],> 260 µM (inactive)
Fc1ccccc1-c1nc2nc3ccccc3nc2n1CC1CCCO1 (stereo unspecified),EC50,[2],> 260 µM (inactive)
CCOc1ccccc1-c1noc(CCCC(=O)NC2CCCCC2)n1,EC50,[2],> 260 µM (inactive)
COc1ccc(Cc2noc(-c3ccc(OC)c(OC)c3)n2)cc1OC,EC50,[7],> 120 µM (not active)
same,EC50,[8],> 120 µM (not active)
same,EC50,[9],> 120 µM (not active)
Cc1ccc2oc(C(=O)N3CCC(C(N)=O)(N4CCCCC4)CC3)c(C)c2c1,EC50,[1],> 195 µM (not active)
Cc1sc2ncnc(N3CCOCC3)c2c1C,EC50,[7],20.4 µM (active)
same,EC50,[8],40.6 µM (active)
same,EC50,[9],17.5 µM (active)
Cc1n[nH]c(O)c1C(c1ccc2c(c1)OCO2)c1c(C)n[nH]c1O,AC50,[4],0.324 µM (active)
same,EC50,[5],0.189 µM (active)
O=S1(=O)C=C(N2CCOCC2)c2ccccc21,AC50,[3],39.8 µM (inconclusive)
CC1(c2cccs2)CC(c2cccs2)=C(C#N)C(=O)N1 (stereo unspecified),EC50,[2],> 260 µM (inactive)
O=C(NCc1nc2ccccc2[nH]1)C1=C[C@@H](c2ccc3c(c2)OCO3)C[C@@H](OCc2ccc(CO)cc2)O1,EC50,[1],> 195 µM (not active)
O=C(Nc1ccc2c(c1)ncn2C1CCCCC1)c1ccco1,EC50,[1],> 195 µM (not active)
CCOc1ccccc1NC(=O)Cn1nnc(C(=O)NCc2ccc3c(c2)OCO3)c1N,EC50,[7],> 120 µM (not active)
same,EC50,[8],36.7 µM (active)
same,EC50,[9],> 120 µM (not active)
CCO/C(O)=C1/C(C)=Nc2ncnn2C1c1cccnc1 (stereo unspecified),AC50,[6],22.4 µM (inconclusive)
same,AC50,[3],25.1 µM (inconclusive)
CCCN(CCC)C(=O)CSc1nc2nnc(C)c-2c(N)n1-c1ccc(OC)cc1,EC50,[7],19.3 µM (active)
same,EC50,[8],19.8 µM (active)
same,EC50,[9],16.1 µM (active)
O=C(Nc1cccc(-c2ccc(F)cc2)c1)C1CCCN(C(=O)c2cscn2)C1 (stereo unspecified),EC50,[1],> 195 µM (not active)
COc1ccc(Cl)cc1N1C(=O)/C(=C\c2sccc2C)N=C1SCC(=O)NC1CC1,EC50,[2],> 260 µM (inactive)
COc1ccc(N2CCN(C(=O)COC(=O)CCOc3ccccc3C)CC2)cc1,EC50,[1],> 195 µM (not active)
O=C(Cc1cccs1)NCc1ccccc1Br,EC50,[2],> 260 µM (inactive)
N#Cc1ccc(CN2CCC3(CC2)CCN(C(=O)c2cnccn2)CC3)cc1,AC50,[3],39.8 µM (inconclusive)
Cc1cc(C)n(-c2nc3ccccc3s2)n1,EC50,[1],> 195 µM (not active)
COC(=O)Nc1ccc(S(=O)(=O)Nc2cccc3ccccc23)cc1,EC50,[2],> 260 µM (inactive)
COc1ccc(N2CCN(C(c3cccs3)C(C)NS(=O)(=O)c3ccccc3)CC2)cc1 (stereo unspecified),EC50,[2],> 260 µM (inactive)
CN1CCN(C(=O)c2ccc(Cn3cc(Cl)cn3)o2)CC1,EC50,[2],> 260 µM (inactive)
CC(C)C(C)N(Cc1ccc(C(=O)O)cc1)C(=O)c1ccc2ccccc2n1 (stereo unspecified),EC50,[2],> 260 µM (inactive)
COc1cc(OC)cc(C(=O)N/N=C(\C)CC(=O)Nc2ccccn2)c1,AC50,[4],13.1 µM (active)
same,EC50,[5],7.81 µM (active)
S=C1NCCN1 [ETHYLENE THIOUREA],EC50,[1],> 195 µM (not active)
